From article PMC4559364, “Triterpenoid profiling and functional characterization of the initial genes involved in isoprenoid biosynthesis in neem (Azadirachta indica)” (BMC Plant Biology, 2015) come the findings set out here.

What all share (format): biochemical
One assay deals with T1, full length AiSQS (Azadirachta indica, UniProt I1Z8B6).
T1 construct: gene SQS1; full-length, printed as 396 residues from 1176 bp ORF (these disagree), 44 kDa; pRSET-C, His6 tag; E. coli BL21 Star(DE3); glycerol/CHAPS, Ni-NTA
T1 sequence (I1Z8B6 entry or part of it): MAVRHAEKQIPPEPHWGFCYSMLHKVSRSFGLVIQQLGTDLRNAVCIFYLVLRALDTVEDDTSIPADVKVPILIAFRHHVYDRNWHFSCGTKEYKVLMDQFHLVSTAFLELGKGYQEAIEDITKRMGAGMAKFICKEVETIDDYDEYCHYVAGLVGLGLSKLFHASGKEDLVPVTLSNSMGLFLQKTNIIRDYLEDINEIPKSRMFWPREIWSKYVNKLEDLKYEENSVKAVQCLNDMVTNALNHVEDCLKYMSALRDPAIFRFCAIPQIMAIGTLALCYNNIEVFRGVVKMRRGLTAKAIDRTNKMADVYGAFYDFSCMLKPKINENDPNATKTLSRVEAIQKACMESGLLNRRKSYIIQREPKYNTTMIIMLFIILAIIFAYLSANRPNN
As to the kind of experiment: GC-MS of squalene. Conditions: 100 μM FPP, 1 mM NADPH; 30 °C, 2 h.

The next assay deals with T2, truncated AiSQS (Azadirachta indica, UniProt I1Z8B6).
T2 construct: gene SQS1; truncated: 15 N-terminal and 63 C-terminal residues deleted (end border uncertain, printed 396 residues and 1176 bp ORF disagree); pET28c, His6 tag; E. coli BL21(DE3); Ni-NTA; ~35 kDa
T2 sequence (I1Z8B6 entry or part of it): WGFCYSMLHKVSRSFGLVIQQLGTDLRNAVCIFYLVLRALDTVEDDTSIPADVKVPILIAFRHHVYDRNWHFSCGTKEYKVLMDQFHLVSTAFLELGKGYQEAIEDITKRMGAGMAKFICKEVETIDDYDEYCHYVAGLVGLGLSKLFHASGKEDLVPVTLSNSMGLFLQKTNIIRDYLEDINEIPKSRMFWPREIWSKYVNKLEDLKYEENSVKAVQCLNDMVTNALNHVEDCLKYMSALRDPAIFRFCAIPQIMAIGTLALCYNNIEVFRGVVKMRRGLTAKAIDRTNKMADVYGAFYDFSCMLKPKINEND
Nature of the assay: GC-MS of squalene. Particulars: 100 μM FPP, 1 mM NADPH; 30 °C, 2 h.

The next assay concerns the target T3, AiFDS (Azadirachta indica, UniProt A0A088CNE3).
T3 construct: E. coli BL21(DE3); Ni-NTA
T3 sequence (A0A088CNE3 1-342): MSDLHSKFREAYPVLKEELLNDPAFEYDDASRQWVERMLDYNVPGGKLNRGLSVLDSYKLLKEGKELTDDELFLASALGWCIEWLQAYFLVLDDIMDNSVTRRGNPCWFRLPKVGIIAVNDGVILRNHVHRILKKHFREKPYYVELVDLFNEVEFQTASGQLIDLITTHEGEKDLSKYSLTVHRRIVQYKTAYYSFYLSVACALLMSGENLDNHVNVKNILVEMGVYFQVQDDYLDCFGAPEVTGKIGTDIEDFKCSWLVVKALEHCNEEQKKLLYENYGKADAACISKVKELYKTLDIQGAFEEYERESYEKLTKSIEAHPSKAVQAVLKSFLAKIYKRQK
As to the kind of experiment: GC-MS of (E,E)-farnesol after alkaline phosphatase. Particulars: HEPES buffer, 30 °C, 2 h.

A further assay has as its target T4, AiGDS (Azadirachta indica, UniProt A0A088CND2).
T4 construct: E. coli; solubilised from inclusion bodies by pH 11 to 7 shift; Ni-NTA; homomeric type; mitochondrial targeting predicted
T4 sequence (A0A088CND2 1-420): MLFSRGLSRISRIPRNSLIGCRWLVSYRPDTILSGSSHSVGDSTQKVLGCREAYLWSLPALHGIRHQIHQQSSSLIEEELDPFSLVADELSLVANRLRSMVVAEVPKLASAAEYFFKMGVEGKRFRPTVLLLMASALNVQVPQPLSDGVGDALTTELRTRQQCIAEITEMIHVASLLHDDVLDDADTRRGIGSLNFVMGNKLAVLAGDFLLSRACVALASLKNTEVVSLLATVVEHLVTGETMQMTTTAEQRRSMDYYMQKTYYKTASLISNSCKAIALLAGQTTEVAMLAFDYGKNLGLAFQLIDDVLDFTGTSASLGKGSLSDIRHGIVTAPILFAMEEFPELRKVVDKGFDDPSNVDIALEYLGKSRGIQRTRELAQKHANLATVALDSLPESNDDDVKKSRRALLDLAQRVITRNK
Nature of the assay: GC-MS of geraniol after alkaline phosphatase. Conditions: HEPES buffer, 30 °C, 2 h.

`CC(C)=CCC/C(C)=C/CC/C(C)=C/COP(=O)(O)OP(=O)(O)O` [FPP]: the GC-MS of squalene entry is “full length and truncated AiSQS with FPP in the presence of NADPH” at full length AiSQS; “full length and truncated AiSQS with FPP in the presence of NADPH” at truncated AiSQS.

In the case of `CC(C)=CCC/C(C)=C/COP(=O)(O)OP(=O)(O)O` [GPP], the “GC-MS of (E,E)-farnesol after alkaline phosphatase” value on AiFDS (with IPP, GPP 100 μM) was “purified short-chain prenyltransferase was incubated with DMAPP/GPP and IPP followed by treatment with alkaline phosphatase”.

On to `C=C(C)CCOP(=O)(O)OP(=O)(O)O` [IPP], for which, on AiGDS (with DMAPP, IPP 100-200 μM), the “GC-MS of geraniol after alkaline phosphatase” value was “Purified recombinant AiGDS was incubated with equimolar concentration of IPP and DMAPP”. Also, the “GC-MS of (E,E)-farnesol after alkaline phosphatase” value at AiFDS (with DMAPP or GPP, IPP 100-200 μM) was “purified short-chain prenyltransferase was incubated with DMAPP/GPP and IPP followed by treatment with alkaline phosphatase”.

For `NC(=O)C1=CN([C@@H]2O[C@H](COP(=O)(O)OP(=O)(O)OC[C@H]3O[C@@H](n4cnc5c(N)ncnc54)[C@H](OP(=O)(O)O)[C@@H]3O)[C@@H](O)[C@H]2O)C=CC1` [NADPH], the GC-MS of squalene entry was “full length and truncated AiSQS with FPP in the presence of NADPH” at full length AiSQS; “full length and truncated AiSQS with FPP in the presence of NADPH” on truncated AiSQS.

`CC(C)=CCOP(=O)(O)OP(=O)(O)O` [DMAPP]: the “GC-MS of geraniol after alkaline phosphatase” value at AiGDS (with IPP, DMAPP 100 μM) was “Purified recombinant AiGDS was incubated with equimolar concentration of IPP and DMAPP”.
